Assay results reported in the NIST ThermoML archive (doi:10.1021/acs.jced.6b00350).
Values joined by “and” are separate entries in the source; they are usually repeats but may differ in a detail not shown here. Equal values may be shown once.

Conditions: Liquid, Hot wire method

FC(F)CC(F)(F)F [1,1,1,3,3-pentafluoropropane]
Conditions | thermal conductivity
201.86 K, 21419 kPa | 0.124 W/m/K
201.86 K, 21433 kPa | 0.1239 W/m/K
201.87 K, 27158 kPa | 0.1248 W/m/K
202.1 K, 4763 kPa | 0.1206 W/m/K
202.12 K, 10088 kPa | 0.1217 W/m/K
202.12 K, 10097 kPa | 0.1218 W/m/K
202.15 K, 15804 kPa | 0.1229 W/m/K
202.15 K, 15839 kPa | 0.1229 W/m/K
202.2 K, 267 kPa | 0.1193 W/m/K
202.2 K, 275 kPa | 0.1195 W/m/K
202.2 K, 21408 kPa | 0.1237 W/m/K
202.2 K, 21420 kPa | 0.1237 W/m/K
202.21 K, 27161 kPa | 0.1249 W/m/K
202.23 K, 27677 kPa | 0.1252 W/m/K
202.24 K, 27673 kPa | 0.1255 W/m/K
202.24 K, 33666 kPa | 0.1267 W/m/K
202.24 K, 33675 kPa | 0.1266 W/m/K
202.26 K, 40147 kPa | 0.1279 W/m/K
202.26 K, 40151 kPa | 0.1278 W/m/K
202.27 K, 46773 kPa | 0.129 W/m/K
202.27 K, 46779 kPa | 0.1291 W/m/K
202.27 K, 53774 kPa | 0.1304 W/m/K
202.28 K, 53774 kPa | 0.1304 W/m/K
202.28 K, 60672 kPa | 0.1313 W/m/K
202.28 K, 60684 kPa | 0.1319 W/m/K
202.29 K, 67566 kPa | 0.1328 W/m/K
202.29 K, 67588 kPa | 0.1327 W/m/K
202.48 K, 4763 kPa | 0.1205 W/m/K
202.49 K, 10097 kPa | 0.1216 W/m/K
202.49 K, 10103 kPa | 0.1216 W/m/K
202.52 K, 15780 kPa | 0.1229 W/m/K
202.52 K, 15825 kPa | 0.1229 W/m/K
202.57 K, 21412 kPa | 0.1238 W/m/K
202.57 K, 21416 kPa | 0.1237 W/m/K
202.57 K, 27164 kPa | 0.1249 W/m/K
202.58 K, 275 kPa | 0.1195 W/m/K
202.58 K, 288 kPa | 0.1194 W/m/K
202.59 K, 27679 kPa | 0.1253 W/m/K
202.59 K, 27683 kPa | 0.1253 W/m/K
202.59 K, 33679 kPa | 0.1264 W/m/K
202.6 K, 33675 kPa | 0.1265 W/m/K
202.61 K, 40142 kPa | 0.1278 W/m/K
202.62 K, 40147 kPa | 0.1278 W/m/K
202.62 K, 46778 kPa | 0.129 W/m/K
202.62 K, 46780 kPa | 0.1289 W/m/K
202.62 K, 53770 kPa | 0.1302 W/m/K and 0.1303 W/m/K
202.63 K, 60672 kPa | 0.1318 W/m/K
202.63 K, 60673 kPa | 0.1317 W/m/K
202.63 K, 67539 kPa | 0.1325 W/m/K
202.63 K, 67552 kPa | 0.1327 W/m/K
202.89 K, 4767 kPa | 0.1203 W/m/K
202.89 K, 4772 kPa | 0.1204 W/m/K
202.9 K, 10110 kPa | 0.1216 W/m/K
202.92 K, 15810 kPa | 0.1227 W/m/K
202.92 K, 15863 kPa | 0.1227 W/m/K
202.97 K, 21416 kPa | 0.1236 W/m/K
202.97 K, 21421 kPa | 0.1236 W/m/K
202.97 K, 27152 kPa | 0.1247 W/m/K
202.97 K, 27157 kPa | 0.1247 W/m/K
202.98 K, 27682 kPa | 0.1253 W/m/K
202.98 K, 33690 kPa | 0.1266 W/m/K
202.99 K, 306 kPa | 0.1193 W/m/K
202.99 K, 337 kPa | 0.1194 W/m/K
202.99 K, 27679 kPa | 0.1252 W/m/K
202.99 K, 33685 kPa | 0.1265 W/m/K
203 K, 40148 kPa | 0.1278 W/m/K
203 K, 46783 kPa | 0.1289 W/m/K and 0.129 W/m/K
203 K, 53771 kPa | 0.1302 W/m/K
203 K, 53775 kPa | 0.1301 W/m/K
203 K, 60661 kPa | 0.1314 W/m/K
203 K, 60670 kPa | 0.1314 W/m/K
203 K, 67499 kPa | 0.1327 W/m/K
203 K, 67521 kPa | 0.1326 W/m/K
203.01 K, 40146 kPa | 0.1276 W/m/K
203.32 K, 4769 kPa | 0.1202 W/m/K
203.32 K, 4775 kPa | 0.1202 W/m/K
203.33 K, 10125 kPa | 0.1214 W/m/K
203.33 K, 10131 kPa | 0.1214 W/m/K
203.34 K, 15898 kPa | 0.1226 W/m/K
203.35 K, 15840 kPa | 0.1227 W/m/K
203.39 K, 27154 kPa | 0.1246 W/m/K
203.39 K, 27157 kPa | 0.1243 W/m/K
203.4 K, 21419 kPa | 0.1235 W/m/K
203.4 K, 33699 kPa | 0.1263 W/m/K
203.4 K, 67478 kPa | 0.1323 W/m/K
203.41 K, 27689 kPa | 0.1252 W/m/K
203.41 K, 33685 kPa | 0.1264 W/m/K
203.41 K, 46771 kPa | 0.1289 W/m/K
203.41 K, 46773 kPa | 0.1287 W/m/K
203.41 K, 53771 kPa | 0.1302 W/m/K
203.41 K, 53772 kPa | 0.1301 W/m/K
203.41 K, 60658 kPa | 0.1313 W/m/K
203.41 K, 60664 kPa | 0.1315 W/m/K
203.41 K, 67491 kPa | 0.1325 W/m/K
203.42 K, 40141 kPa | 0.1277 W/m/K
203.42 K, 40147 kPa | 0.1276 W/m/K
203.43 K, 372 kPa | 0.119 W/m/K
203.43 K, 393 kPa | 0.1193 W/m/K
203.83 K, 67450 kPa | 0.1325 W/m/K
203.83 K, 67465 kPa | 0.1324 W/m/K
203.84 K, 53769 kPa | 0.13 W/m/K
203.84 K, 60649 kPa | 0.1313 W/m/K and 0.1311 W/m/K
203.85 K, 27696 kPa | 0.1251 W/m/K
203.85 K, 33690 kPa | 0.1263 W/m/K
203.85 K, 33700 kPa | 0.1263 W/m/K
203.85 K, 46765 kPa | 0.1288 W/m/K
203.85 K, 46774 kPa | 0.1288 W/m/K
203.85 K, 53757 kPa | 0.13 W/m/K
203.86 K, 27682 kPa | 0.125 W/m/K
203.86 K, 40135 kPa | 0.1275 W/m/K
203.86 K, 40141 kPa | 0.1276 W/m/K
221.72 K, 250 kPa | 0.1129 W/m/K
221.72 K, 251 kPa | 0.113 W/m/K
221.73 K, 4830 kPa | 0.1143 W/m/K
221.73 K, 4854 kPa | 0.1145 W/m/K
221.74 K, 10031 kPa | 0.1155 W/m/K
221.75 K, 10011 kPa | 0.1159 W/m/K
221.76 K, 15754 kPa | 0.1169 W/m/K
221.76 K, 15760 kPa | 0.1169 W/m/K
221.77 K, 21259 kPa | 0.1183 W/m/K
221.77 K, 21264 kPa | 0.1188 W/m/K
221.78 K, 27420 kPa | 0.1202 W/m/K
221.78 K, 27443 kPa | 0.1204 W/m/K
222 K, 39755 kPa | 0.1236 W/m/K
222 K, 39756 kPa | 0.1236 W/m/K
222 K, 47190 kPa | 0.1252 W/m/K
222.01 K, 47202 kPa | 0.1258 W/m/K
222.01 K, 54322 kPa | 0.1269 W/m/K
222.01 K, 54323 kPa | 0.1269 W/m/K
222.02 K, 61325 kPa | 0.1285 W/m/K
222.02 K, 61363 kPa | 0.1286 W/m/K
222.02 K, 67941 kPa | 0.1302 W/m/K
222.02 K, 67960 kPa | 0.13 W/m/K
222.09 K, 253 kPa | 0.1125 W/m/K
222.09 K, 4859 kPa | 0.1139 W/m/K
222.09 K, 4863 kPa | 0.1139 W/m/K
222.1 K, 247 kPa | 0.1124 W/m/K
222.11 K, 10038 kPa | 0.1155 W/m/K
